In patent US20230078913A1, “ANDROGEN RECEPTOR MODULATORS AND METHODS FOR USE AS PROTEOLYSIS TARGETING CHIMERA LIGANDS” (ESSA Pharma, Inc., priority 2019, published 2023):

Test system: androgen receptor (androgen-induced PSA-luciferase activity in LNCaP cells)
Assay: Androgen-induced PSA (6.1 kb)-luciferase reporter assay in LNCaP cells
Type: cell-based
Conditions: Homo sapiens; LNCaP cells transiently transfected with PSA (6.1 kb)-luciferase reporter; R1881 (1 nM), 24 h; normalized to maximum androgen-induced activity (vehicle only)
Procedure: To determine the IC50, treatments were normalized to the maximum activity with androgen-induction (in the absence of test compounds, vehicle only) (Table 1).
Luciferase Assay: Lysates were thawed on ice then collected into V-bottom 96-well tissue culture plates. Lysates were centrifuged at 4° C. for 5 minutes at 4000 rpm. To measure luminescence of LNCaP cell lysates the Firefly Luciferase Assay System (Promega) was employed, according to manufacturer's protocol.
Comparisons between treatment and control groups were compared using Two-Way ANOVA with post-hoc Dunnett's and Tukey's tests. Differences were considered statistically significant at P values less than 0.05. Densitometric quantification of relative AR levels was determined by Image.

Structure (SMILES): C[C@H](Oc1ccc(C(C)(C)c2cc(Cl)c(OCCCl)c(C#N)c2)cc1)c1ccnc(NS(C)(=O)=O)n1 [Example A170]
- IC50: 0.651 µM
